{"source": "patent US10000438B2", "about": "“Small molecule inhibitors of TRPA1” (B.R.A.I.N. Biotechnology Research and Information Network AG, priority 2011, dated 2018)", "key": {"[1]": {"target": "T1, TRPA1 (Homo sapiens, UniProt O75762)", "T1 sequence (O75762 whole entry)": "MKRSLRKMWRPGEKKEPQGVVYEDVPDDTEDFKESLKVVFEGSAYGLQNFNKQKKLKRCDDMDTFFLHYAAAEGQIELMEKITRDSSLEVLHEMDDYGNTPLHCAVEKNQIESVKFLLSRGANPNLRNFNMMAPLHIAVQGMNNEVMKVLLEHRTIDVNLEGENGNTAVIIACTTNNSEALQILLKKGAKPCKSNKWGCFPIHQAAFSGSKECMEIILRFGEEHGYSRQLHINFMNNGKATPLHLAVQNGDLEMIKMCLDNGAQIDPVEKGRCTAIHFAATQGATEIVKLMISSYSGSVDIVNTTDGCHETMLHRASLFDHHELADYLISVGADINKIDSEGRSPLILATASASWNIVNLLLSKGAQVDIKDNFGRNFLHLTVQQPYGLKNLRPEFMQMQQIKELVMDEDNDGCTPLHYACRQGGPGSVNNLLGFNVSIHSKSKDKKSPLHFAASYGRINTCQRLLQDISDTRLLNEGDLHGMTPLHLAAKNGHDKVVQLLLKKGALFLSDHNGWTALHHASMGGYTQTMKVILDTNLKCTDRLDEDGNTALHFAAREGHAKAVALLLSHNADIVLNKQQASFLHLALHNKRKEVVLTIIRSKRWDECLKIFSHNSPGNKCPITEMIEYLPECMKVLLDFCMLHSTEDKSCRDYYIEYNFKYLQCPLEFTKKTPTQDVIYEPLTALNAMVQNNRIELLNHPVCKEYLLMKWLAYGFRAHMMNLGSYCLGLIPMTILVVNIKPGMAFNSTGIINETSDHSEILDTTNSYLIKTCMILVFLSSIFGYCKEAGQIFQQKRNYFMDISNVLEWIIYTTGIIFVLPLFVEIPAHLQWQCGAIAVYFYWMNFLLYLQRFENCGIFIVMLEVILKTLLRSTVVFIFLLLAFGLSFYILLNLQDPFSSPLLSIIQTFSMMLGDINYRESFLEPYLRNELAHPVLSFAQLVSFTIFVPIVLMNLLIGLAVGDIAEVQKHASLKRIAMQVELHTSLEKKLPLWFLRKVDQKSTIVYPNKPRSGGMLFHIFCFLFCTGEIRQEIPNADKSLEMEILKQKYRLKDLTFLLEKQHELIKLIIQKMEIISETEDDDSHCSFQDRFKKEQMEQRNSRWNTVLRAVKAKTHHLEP", "test": "Cell-based calcium assay (Fluo-4 fluorescence) in HEK293 cells expressing recombinant human TRPA1", "design": "expressed in transfected cells", "protocol": "The HEK293 cell line expressing recombinant human TRPA1 under the control of a tetracycline-regulated promoter was used in this assay (cf. example 2). Functional modulation of TRPA1 by the tested compounds was measured and quantified using the calcium sensitive fluorescent probe […] on a fluorescence microplate reader. Activation of TRPA1 by an agonist led to an increase in the intracellular calcium concentration and thus an increase in fluorescence intensity.\nProcedure: Cells were cultured in DMEM (high glucose) supplemented with tetracycline-free FCS (10% v/v), L-glutamine (4 mM), blasticidin (15 μg/ml) and hygromycin (100 μg/mL) in a water-saturated atmosphere at 37° C. and 5% CO2. Cells were seeded onto 96-well clear-bottom black-walled assay plates at a density of 70,000 cells per well in 100 μl of cell culture medium. Expression of the ion channel was induced or not induced by addition of tetracycline (1 μg/ml final concentration) to the cell culture medium (while seeding the cells). Calcium influx into the living cells due to channel activation was monitored 24 h later using the calcium sensitive fluorescent probe […] on a fluorescence microplate reader (FlexStation® system, Molecular Devices). Therefore 100 μl Krebs-HEPES (KH) buffer (118 mM NaCl; 4.7 mM KCl; 1.3 mM CaCl2; 1.2 mM MgSO4; 1.2 mM KH2PO4; 4.2 mM NaHCO3; 10 mM Hepes, pH 7.4) supplemented with sulfinpyrazone (250 μM) and […] (4 μM) were added and the cells were incubated for an additional hour in a water-saturated atmosphere at 37° C. and 5% CO2.\nMeasurement of agonistic activity: Medium was replaced with 200 μl KH buffer supplemented with sulfinpyrazone (250 μM). Subsequently, 50 μl KH buffer supplemented with the agonists or control substances were added. Changes in fluorescence were recorded at 20-26° C.\nMeasurement of antagonistic activity (screening): Medium was replaced with 150 μl KH buffer supplemented with sulfinpyrazone (250 μM). Subsequently, 50 μl KH buffer supplemented with the screening compounds (50 μM; leading to a final concentration of 10 μM under measurement conditions) or control substances were added and the cells were incubated for 10 min. under assay conditions in the microplate reader. Changes in fluorescence were recorded at 20-26° C. after addition of 50 μl KH buffer supplemented with the TRPA1 agonist menthol (175 μM; leading to a final concentration of 35 μM under measurement conditions). The published TRPA1 antagonist AP-18 (Petrus, 2007) was used as a control for TRPA1-specific […] activity. Subsequently, the inventive compounds were tested for their capacity to reduce signals triggered by addition of propylparaben (EC80=80 μM), retinol (EC80=150 μM), and allyl isothiocyanate (EC80=5 μM) (cf. Table 2).\nAnalysis: Calcium mobilization was quantified as the change of peak fluorescence (ΔF) over the baseline level (F). The data was analyzed with the software of the microplate reader. Potential TRPA1 antagonists were tested in an effective range of 0.1-50 μM for their capacity to reduce the menthol-evoked signal."}, "[2]": {"target": "T1, TRPA1", "test": "Blinded in vivo study on the lid-cheek junction, stinging/burning induced by flufenamic acid", "design": "from tissue; host or cells: facial skin (lid-cheek junction) of human volunteers", "conditions": "compound 0.05% pre-incubated on one side of face, placebo on other; flufenamic acid 0.75%; 16 persons, two felt no stimulus", "protocol": "Antagonistic in vivo activity at TRPA1 was tested in a blinded study on the lid-cheek junction of 16 test persons. The ion channel was stimulated using a known TRPA1 agonist: flufenamic acid, a member of the group of NSAIDs (non-steroidal anti-inflammatory drugs) (Hu et al., 2010). The concentration of flufenamic acid was adjusted to a level that induced a pronounced stinging/burning sensation in the majority of the testers (0.75%).\nProcedure: One side of the face (the lid-cheek junction) was pre-incubated with the antagonist (compound I.3, 0.05%)—the other side with placebo. Afterwards, flufenamic acid was applied to both sides simultaneously. Testers were asked several questions regarding their individual perception of irritation.\nAnalysis: Testers were asked if they could feel the NSAID-triggered stinging/burning. The strength of the stimulus was not judged. Then they were asked if they could perceive a difference between the two areas. If the answer was yes, they were asked which side was perceived as more pleasant. The antagonistic effect was graded in three categories: no reduction, reduction and strong reduction of the irritation. 10 out of 14 testers perceived a soothing effect by the use of the antagonist (two individuals felt no stimulus at all)."}, "[3]": {"target": "T2, human TRPM8 (Homo sapiens, UniProt Q7Z2W7)", "T2 construct": "expressed in transfected cells; host or cells: HEK293 (tetracycline-regulated promoter)", "T2 sequence (Q7Z2W7 whole entry)": "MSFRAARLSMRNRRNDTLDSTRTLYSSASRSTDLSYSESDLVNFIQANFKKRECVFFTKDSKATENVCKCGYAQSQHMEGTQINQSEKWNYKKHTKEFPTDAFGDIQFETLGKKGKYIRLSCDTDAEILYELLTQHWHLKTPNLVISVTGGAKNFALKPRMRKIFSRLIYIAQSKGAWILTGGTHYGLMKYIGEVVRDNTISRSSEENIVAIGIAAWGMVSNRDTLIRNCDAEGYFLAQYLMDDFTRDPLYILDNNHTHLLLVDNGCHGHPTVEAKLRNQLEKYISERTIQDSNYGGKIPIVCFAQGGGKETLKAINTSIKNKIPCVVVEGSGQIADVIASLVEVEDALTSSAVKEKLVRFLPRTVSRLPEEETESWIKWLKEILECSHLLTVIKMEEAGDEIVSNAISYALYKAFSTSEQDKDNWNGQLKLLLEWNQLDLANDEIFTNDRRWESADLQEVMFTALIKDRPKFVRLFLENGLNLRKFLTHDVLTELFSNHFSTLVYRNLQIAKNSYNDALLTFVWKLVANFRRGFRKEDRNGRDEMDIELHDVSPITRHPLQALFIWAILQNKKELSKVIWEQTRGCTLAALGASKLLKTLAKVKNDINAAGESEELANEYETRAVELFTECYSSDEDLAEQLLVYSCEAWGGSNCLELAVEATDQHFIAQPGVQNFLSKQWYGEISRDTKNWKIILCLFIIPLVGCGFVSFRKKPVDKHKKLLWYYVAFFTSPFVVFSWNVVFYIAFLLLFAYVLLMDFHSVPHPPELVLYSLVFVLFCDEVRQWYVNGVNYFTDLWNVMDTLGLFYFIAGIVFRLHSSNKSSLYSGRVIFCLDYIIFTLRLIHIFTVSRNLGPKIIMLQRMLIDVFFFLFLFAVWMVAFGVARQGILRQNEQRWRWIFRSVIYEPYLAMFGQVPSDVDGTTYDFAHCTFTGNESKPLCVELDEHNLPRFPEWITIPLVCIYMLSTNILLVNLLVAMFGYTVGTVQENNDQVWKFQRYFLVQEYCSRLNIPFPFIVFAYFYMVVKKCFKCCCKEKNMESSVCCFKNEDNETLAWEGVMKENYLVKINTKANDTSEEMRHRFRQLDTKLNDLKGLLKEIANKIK", "test": "Test for cross-selectivity on TRPM8: calcium assay in HEK293 cells expressing recombinant human TRPM8", "assay_type": "cell-based", "protocol": "The test for cross-selectivity of the compounds on TRPM8 was performed in much the same way as the initial screening on TRPA1 (described in example 3). A HEK293 cell line expressing recombinant human TRPM8 under the control of a tetracycline-regulated promoter was used. Cells were cultured under the conditions mentioned in example 3. Functional modulation of TRPM8 was measured and quantified using the calcium sensitive fluorescent probe Fluo-4 AM on a fluorescence microplate reader. The assay was performed as described in example 3. Changes in fluorescence were recorded at 26-30° C. after addition of the compounds and/or the TRPM8 agonist menthol (EC80=12 μM). Dose-response curves are shown in FIGS. 5 to 9 (calcium assay) against menthol, which is known to trigger both TRPA1 as well as TRPM8. In particular, the antagonistic activity of compound I.3, II.3, III.3, IV.3 and V.3 at TRPA1 (open circles, continuous line) as well as the antagonistic activity of said compounds at TRPM8 (filled squares, dotted line) was measured and compared. Activation of the two ion channels was triggered by addition of menthol (EC80[TRPA1]=35 μM and EC80[TRPM8]=12 μM). The receptor signals were normalized to the pure menthol signal in each case."}, "[4]": {"target": "T1, TRPA1", "test": "Cell-based (label-free) impedance assay in HaCaT cells"}, "[5]": {"conditions": "agonist allyl isothiocyanate at EC80 (5 μM), read-out: Antagonistic activity (IC50) against Allyl isothiocyanate"}, "[6]": {"conditions": "agonist menthol at EC80 (35 μM final), read-out: Antagonistic activity (IC50) against Menthol"}, "[7]": {"conditions": "agonist propylparaben at EC80 (80 μM), read-out: Antagonistic activity (IC50) against Propylparaben"}, "[8]": {"conditions": "agonist retinol at EC80 (150 μM), read-out: Antagonistic activity (IC50) against Retinol"}}, "note": "Like-named read-outs stand apart in the source and are kept apart here.", "data": [{"compound": "CC1=C(/C=C/C(C)=C/C=C/C(C)=C/CO)C(C)(C)CCC1", "note": "[retinol, reference compound]", "values": [{"measurement": "Agonistic efficacy at TRPA1 (EC80)", "setting": "[1]", "value": 150, "unit": "µM"}]}, {"compound": "COc1cc(C(=O)OC2CC3CCC2(C)C3(C)C)ccc1OC(C)=O", "note": "(centres unmarked) [Compound I.3]", "values": [{"measurement": "IC50", "setting": "[1]; [5]", "value": 2.5, "unit": "µM"}, {"measurement": "IC50", "setting": "[1]; [6]", "value": 3.5, "unit": "µM"}, {"measurement": "IC50", "setting": "[1]; [7]", "value": 4.7, "unit": "µM"}, {"measurement": "IC50", "setting": "[1]; [8]", "value": 3.4, "unit": "µM"}, {"measurement": "Testers who perceived a soothing effect by the use of the antagonist", "setting": "[2]", "value": "10 out of 14"}]}, {"compound": "CC1CCC(C(C)C)C(O)C1", "note": "(centres unmarked) [menthol, 2-isopropyl-5-methyl-cyclohexanol, reference compound]", "values": [{"measurement": "Agonistic efficacy at TRPA1 (EC80)", "setting": "[1]", "value": 35, "unit": "µM"}, {"measurement": "Agonistic efficacy at TRPM8 (EC80)", "setting": "[3]", "value": 12, "unit": "µM"}]}, {"compound": "CC(C)c1ccc2c(c1)CCC1[C@](C)(C(=O)O)CCC[C@]21C", "note": "(some centres unmarked) [Compound V.3]", "values": [{"measurement": "IC50", "setting": "[1]; [5]", "value": 26, "unit": "µM"}, {"measurement": "IC50", "setting": "[1]; [6]", "value": 4.5, "unit": "µM"}, {"measurement": "IC50", "setting": "[1]; [7]", "value": 26, "unit": "µM"}, {"measurement": "IC50", "setting": "[1]; [8]", "value": 14, "unit": "µM"}]}, {"compound": "CCCOC(=O)c1ccc(O)cc1", "note": "[propylparaben, reference compound]", "values": [{"measurement": "Agonistic efficacy at TRPA1 (EC80)", "setting": "[1]", "value": 80, "unit": "µM"}, {"measurement": "Agonistic efficacy at TRPA1 (EC80)", "setting": "[4]", "value": 200, "unit": "µM"}]}, {"compound": "Cc1cc(/C=C2\\C(=N)N3N=C(CC(=O)N4CCCC4)SC3=NC2=O)c(C)n1-c1cccc(Cl)c1", "note": "[Compound IV.3]", "values": [{"measurement": "IC50", "setting": "[1]; [5]", "value": 3.5, "unit": "µM"}, {"measurement": "IC50", "setting": "[1]; [6]", "value": 0.3, "unit": "µM"}, {"measurement": "IC50", "setting": "[1]; [7]", "value": 4.3, "unit": "µM"}, {"measurement": "IC50", "setting": "[1]; [8]", "value": 3.3, "unit": "µM"}]}, {"compound": "COC(=O)c1ccc(/C=C(\\C#N)C(=O)Nc2ccccc2F)cc1", "note": "[Compound III.3]", "values": [{"measurement": "IC50", "setting": "[1]; [5]", "value": 1.2, "unit": "µM"}, {"measurement": "IC50", "setting": "[1]; [6]", "value": 0.1, "unit": "µM"}, {"measurement": "IC50", "setting": "[1]; [7]", "value": 0.4, "unit": "µM"}, {"measurement": "IC50", "setting": "[1]; [8]", "value": 0.4, "unit": "µM"}]}, {"compound": "C=CCN=C=S", "note": "[allyl isothiocyanate, reference compound]", "values": [{"measurement": "Agonistic efficacy at TRPA1 (EC80)", "setting": "[1]", "value": 5, "unit": "µM"}]}]}
